{"source": "patent US20070203228A1", "about": "“Method for treating chronic obstructive pulmonary disease” (SUCAMPO AG, priority 2006, published 2007)", "key": {"[1]": {"test_system": "cigarette smoke-exposed guinea pigs", "experiment": "Specific airway resistance (sRaw) in cigarette smoke-exposed guinea pigs", "assay_type": "in vivo, guinea pig", "settings": "for Specific airway resistance (sRaw) Mean ± S.D.: 30 min from 1 hr before smoke exposure, Days 1 to 25, measured Day 26, n=7, control 2.154 ± 0.365, sham 1.131 ± 0.149", "source_text": "(§1) Guinea pigs were exposed to cigarette smoke using a smoking system (INH06-CIG01A, M.I.P.S. Inc.). Each animal was placed in an exposure holder, and the holder was fixed in an exposure chamber. Cigarette smoke of 30 cigarettes per day (Peace®, Japan Tobacco Inc.) was drawn from a smoke generator into the exposure chamber, 5 days per week, for 25 days (Days 1 to 25). In a sham exposure group, the atmospheric air, instead of cigarette smoke, was drawn into the exposure chamber.\n(§2) Aqueous solution of Compound A (13,14-dihydro-15-keto-16,16-difluoro-18(S)-methyl-PGE1) was vaporized using a pressurized nebulizer (LC Plus Nebulizer, Pari GmbH) and inhaled by the animals in a chamber of an inhalation system (SIS-A, Sibata Scientific Technology Ltd.) for 30 minutes from 1 hr before the cigarette smoke exposure.\nSpecific airway resistance (sRaw) of conscious animals was measured by a double flow plethysmo-graph technique with a respiratory function measurement system (Pulmos-1, M.I.P.S Inc.) on Day 26."}, "[2]": {"test_system": "cigarette smoke-exposed guinea pigs", "experiment": "Macrophage (monocyte) count in bronchoalveolar lavage fluid of cigarette smoke-exposed guinea pigs", "assay_type": "in vivo, guinea pig", "source_text": "as §1, §2\nAfter the measurement of pulmonary function, the animals were sacrificed by exsanguination under anesthesia and the thorax was opened. Five milliliters of saline were instilled into the lungs through a tracheal cannula, and the lavage fluid was recovered by gentle aspiration. This procedure was repeated and the recovered lavage fluid was combined (10 mL in total, bronchoalveolar lavage fluid, BALF). The number of macrophages (monocyte) in the BALF was counted."}, "[3]": {"test_system": "Human lung alveolar type II cells (A549)", "experiment": "Cytochrome c translocation after cigarette smoke extract (CSE) treatment, cytochrome c ELISA", "assay_type": "cell-based", "method": "Smoke from 8 cigarettes was drawn slowly through 100 ml of serum free culture medium and the resulting suspension was filtered through 0.20 μm filter. The solution was considered as 100% cigarette smoke extract (CSE). Human lung alveolar type II cells (A549) were grown in 96 well plates for 48 hrs at a final concentration of 1.5×10^5 cells per well. The cells were then treated separately with either 100 nM Compound A or 1%, 2.5% and 5% CSE. In other sets, 100 nM Compound A was added along with 1%, 2.5% or 5% CSE. All incubations were done at 37° C. for 24 hrs. After 24 hr treatment, the cells were washed with 0-4° C. PBS three times. Measurement of cytochrome c that was translocated into the cytosol, a marker of cellular injury, was performed according to the instructions provided with a kit for cytochrome c ELISA assay."}, "[4]": {"test_system": "cigarette smoke-exposed guinea pigs", "experiment": "Pulmonary function (RV, FEV100) in cigarette smoke-exposed guinea pigs", "assay_type": "in vivo, guinea pig", "source_text": "as §1, §2\nAfter the sRaw measurements, animals were anesthetized with ketamine (60 mg/kg) and xylazine (8 mg/kg), and the trachea was cannulated. Pulmonary function was measured using a pulmonary function measurement system (Biosystem Manoeuvers, Buxco Electronics, Inc.). The parameters of measurement consisted of residual volume (RV) and forced expiratory volume at 100 msec (FEV100)."}, "[5]": {"settings": "compared with the control group"}}, "note": "Entries after “also recorded” stand apart in the source; their conditions may differ. Marks after values point to notes of the source that are not given here."}
{"smiles": "CC[C@H](C)CC(F)(F)C(=O)CC[C@H]1[C@H](O)CC(=O)[C@@H]1CCCCCCC(=O)O", "note": "[Compound A, 13,14-dihydro-15-keto-16,16-difluoro-18(S)-methyl-PGE1]", "values": [{"measurement": "Effect on increase in sRaw induced by cigarette smoke exposure", "setting": "[1]; [5]", "value": "significantly inhibited the increase in sRaw"}, {"measurement": "Specific airway resistance (sRaw) Mean ± S.D.", "setting": "[1]; inhaled aqueous solution 1 μg/mL", "value": "1.417 ± 0.226", "unit": "cmH2O · sec"}, {"measurement": "Specific airway resistance (sRaw) Mean ± S.D.", "setting": "[1]; inhaled aqueous solution 10 μg/mL", "value": "1.383 ± 0.241", "unit": "cmH2O · sec"}, {"measurement": "Effect on increase in number of macrophages (monocyte) in BALF induced by cigarette smoke exposure", "setting": "[2]; [5]", "value": "significantly inhibited the increase in number of macrophages (monocyte)"}, {"measurement": "Monocyte/Macrophage count in bronchoalveolar lavage fluid Mean ± S.D.", "setting": "[2]; inhaled aqueous solution 1 μg/mL, n=7, control 14.42 ± 3.00, sham 4.52 ± 1.73", "value": "10.35 ± 2.53* 10^2 cells/μL"}, {"measurement": "Cytosolic cytochrome c, compound alone", "setting": "[3]; 100 nM Compound A alone, no CSE, 24 hours", "value": "Neither 0.1% DMSO (B) (vehicle for Compound A) nor Compound A (C) alone significantly affected cytosolic cytochrome c"}, {"measurement": "Cytochrome c translocation induced by CSE", "setting": "[3]; 100 nM Compound A with 1%, 2.5% and 5% CSE, 24 hrs, compared to DMSO control (P<0.05, P<002 and P<0.005)", "value": "protected against the cytochrome c translocation induced by CSE; also recorded: significantly decreased cytochrome c translocation"}, {"measurement": "Effect on decrease in FEV100 induced by cigarette smoke exposure", "setting": "[4]; [5]", "value": "significantly inhibited these changes"}, {"measurement": "Effect on increase in residual volume (RV) induced by cigarette smoke exposure", "setting": "[4]; [5]", "value": "significantly inhibited these changes"}, {"measurement": "RV (residual volume) Mean ± S.D.", "setting": "[4]; inhaled aqueous solution 1 μg/mL, n=7, control 5.44 ± 1.43, sham 2.75 ± 1.45", "value": "3.45 ± 1.07", "unit": "mL"}, {"measurement": "FEV100 (forced expiratory volume at 100 msec) Mean ± S.D.", "setting": "[4]; inhaled aqueous solution 1 μg/mL, n=7, control 5.75 ± 3.29, sham 9.87 ± 1.17", "value": "10.38 ± 1.08", "unit": "mL"}]}
